According to patent US11634393B2, “Substituted tolyl fungicides” (FMC CORPORATION, priority 2018, dated 2023):

How the values were obtained:
Phakopsora pachyrhizi = experiment: Test D: Asian soybean rust, spray on soybean seedlings, disease control rating; assay type: in vivo; settings: Rate 10 ppm, 100 = 100% disease control, 0 = no disease control relative to the controls; for pest or weed control at 10 ppm: Phakopsora pachyrhizi, 216 h
Text: (§1) General protocol for preparing test suspensions for Tests A-F: the test compounds were first dissolved in acetone in an amount equal to 3% of the final volume and then suspended at the desired concentration (in ppm) in acetone and purified water (50/50 mix by volume) containing 250 ppm of the surfactant PEG400 (polyhydric alcohol esters). The resulting test suspensions were then used in Tests A-F.
The test solution was sprayed to the point of run-off on soybean seedlings. The following day the seedlings were inoculated with a spore suspension of Phakopsora pachyrhizi (the causal agent of Asian soybean rust) and incubated in a saturated atmosphere at 22° C. for 24 h and then moved to a growth chamber at 22° C. for 8 days, after which time visual disease ratings were made.
(§2) A rating of 100 indicates 100% disease control and a rating of 0 indicates no disease control (relative to the controls). A dash (-) indicates the compound was not tested.

[1] = system: Puccinia recondita f. sp. tritici; experiment: Test B: wheat leaf rust, spray on wheat seedlings, disease control rating; assay type: in vivo; settings: Rate 10 ppm, 100 = 100% disease control, 0 = no disease control relative to the controls; for pest or weed control at 10 ppm: Puccinia recondita, 192 h
Text: as §1
The test solution was sprayed to the point of run-off on wheat seedlings. The following day the seedlings were inoculated with a spore suspension of Puccinia recondita f. sp. tritici (the causal agent of wheat leaf rust) and incubated in a saturated atmosphere at 20° C. for 24 h, and then moved to a growth chamber at 20° C. for 7 days, after which time disease ratings were made.
as §2

Row | Compound | melting point [°C] | pest or weed control at 10 ppm (Phakopsora pachyrhizi) [%] | pest or weed control at 10 ppm [1] [%] | Test D disease control rating (Phakopsora pachyrhizi) [%] | Test B disease control rating [1] [%]
1 | COC(=O)NCc1cc(-c2ccn(-c3c(F)cccc3F)n2)ccc1C [Compound 4, methyl N-[[5-[1-(2,6-difluorophenyl)-1H-pyrazol-3-yl]-2-methylphenyl]-methyl]carbamate] | 142 to 143 | 100 | 90 |  | 
2 | CCOc1cc(F)c(-n2ccc(-c3ccc(C)c(CNC(=O)OC)c3)n2)c(F)c1 [Compound 11, methyl N-[[5-[1-(4-ethoxy-2,6-difluorophenyl)-1H-pyrazol-3-yl]-2-methylphenyl]methyl]carbamate] | 118 to 119 | 100 | 100 |  | 
3 | COC(=O)NCc1cc(-c2ccn(-c3c(F)cc(OC4CCC4)cc3F)n2)ccc1C [Compound 13, methyl N-[[5-[1-[4-(cyclobutyloxy)-2,6-difluorophenyl]-1H-pyrazol-3-yl]-2-methylphenyl]methyl]carbamate] | 126 to 128 | 100 | 100 |  | 
4 | COC(=O)NCc1cc(-c2ccn(-c3c(F)cc(C)cc3F)n2)ccc1C [Compound 30] | 130 to 131 | 100 | 98 |  | 
5 | COC(=O)NCc1cc(-c2ccn(-c3c(F)cc(OC4CC4)cc3F)n2)ccc1C [Compound 66, methyl N-[[5-[1-[4-(cyclopropyloxy)-2,6-difluorophenyl]-1H-pyrazol-3-yl]-2-methylphenyl]methyl]carbamate] | 124 to 128 | 100 | 100 |  | 
6 | COC(=O)NCc1cc(-c2cc(C)n(-c3c(F)cccc3F)n2)ccc1C [Compound 100] | 125 to 129 | 0 | 0 |  | 
7 | COC(=O)NCc1cc(-c2cc(C)n(-c3c(Cl)cccc3Cl)n2)ccc1C [Compound 101] | 146 to 150 | 0 | 0 |  | 
8 | COC(=O)NCc1cc(-c2cc(C)n(-c3c(F)cc(OC)cc3F)n2)ccc1C [Compound 102] | 128 to 132 | 0 | 0 |  | 
9 | COC(=O)NCc1cc(-c2ncn(-c3c(F)cc(C(F)(F)F)cc3F)n2)ccc1C [Compound 103] | 168 to 172 | 86 | 100 |  | 
10 | COC(=O)NCc1cc(-c2ncn(-c3c(F)cc(N)cc3F)n2)ccc1C [Compound 106] | 136 to 140 |  |  |  | 
11 | COC(=O)NCc1cc(-c2cnn(-c3c(F)cccc3F)n2)ccc1C [Compound 112] | 122 to 126 |  |  |  | 
12 | COC(=O)NCc1cc(-c2cn(-c3c(F)cc(N)cc3F)nn2)ccc1C [Compound 131, methyl N-[[5-[1-(4-amino-2,6-difluorophenyl)-1H-1,2,3-triazol-4-yl]-2-methylphenyl]methyl]carbamate] | 194 to 198 |  |  |  | 
13 | COC(=O)NCc1cc(-c2ccn(-c3c(Cl)cc(C(F)(C(F)(F)F)C(F)(F)F)cc3Cl)n2)ccc1C [Compound 138] |  |  |  | 87 | 74
14 | COC(=O)NCc1cc(-c2cnn(-c3c(F)cc(C(C)=O)cc3F)n2)ccc1C [Compound 140] |  |  |  | 71 | 41
15 | CCON=C(C)c1cc(F)c(-n2ncc(-c3ccc(C)c(CNC(=O)OC)c3)n2)c(F)c1 [Compound 142] |  |  |  | 100 | 86
16 | COC(=O)NCc1cc(-c2cnn(-c3c(F)cc(C(C)=NOC(C)C)cc3F)n2)ccc1C [Compound 143] |  |  |  | 100 | 74
17 | methyl N-[[5-[1-(2,6-difluoro-4-methoxyphenyl)-1H-pyrazol-3-yl]-2-methylphenyl]methyl]carbamate [Compound 33] |  |  |  | 100 | 99
